The target in experiment [1] is T1, human CSNK1D (Homo sapiens, UniProt P48730).
T1 construct: expressed in transfected cells
In words: Whole Cell nBRET CSNK1D Binding Assay. The note with it: living CHO cells stably expressing human CSNK1D tagged with nanoluciferase; NanoBret tracer 130 nM; 2 hours at 37 C.

For experiment [2], the target named is T2, human recombinant GST cleaved CSNK1D (Homo sapiens, UniProt P48730).
T2 construct: GST (cleaved yes); purchased University of Dundee clone DU 19064
In words: Purified Enzyme Assay (ADP-Glo CSNK1D Kinase Assay). It is filed as biochemical. To be noted: 2 nM CSNK1D; peptide substrate 150 μM; ATP 20 μM; 45 minutes at room temperature. The method, boiled down: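 Percent activity derived from ADP-Glo quantification of ADP produced. Reactions: compound dose-response with human recombinant GST-cleaved CSNK1D, ATP and substrate peptide PLSRTL-pS-VASLPGL, incubated 45 min at room temperature.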

T2 sequence (P48730 whole entry): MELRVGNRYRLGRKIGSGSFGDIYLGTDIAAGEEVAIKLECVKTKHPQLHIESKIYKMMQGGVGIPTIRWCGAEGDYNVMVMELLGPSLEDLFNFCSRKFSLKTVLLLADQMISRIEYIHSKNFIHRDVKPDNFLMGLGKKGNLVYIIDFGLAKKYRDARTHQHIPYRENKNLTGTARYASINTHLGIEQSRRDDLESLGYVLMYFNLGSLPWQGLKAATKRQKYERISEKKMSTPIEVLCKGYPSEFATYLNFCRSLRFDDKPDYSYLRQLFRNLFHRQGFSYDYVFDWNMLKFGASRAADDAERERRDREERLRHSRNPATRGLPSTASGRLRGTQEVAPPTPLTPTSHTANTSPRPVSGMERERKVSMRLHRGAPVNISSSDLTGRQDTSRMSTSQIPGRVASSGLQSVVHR
T1 sequence (P48730 whole entry): as above

As for `[2H]C([2H])([2H])C1(C([2H])([2H])[2H])Cc2c(-c3c(F)c(C)nc4[nH]ncc34)c(-c3ccc(F)cn3)nn2C1` [Example 244, 5-Fluoro-4-[2-(5-fluoro-2-pyridyl)-5,5-bis(methyl-d3)-4,6-dihydropyrrolo[1,2-b]pyrazol-3-yl]-6-methyl-1H-pyrazolo[3,4-b]pyridine], the 50% inhibitory concentration (IC50) in experiment [1] turned out to be 0.029 µM; in experiment [2] it was 0.004 µM.

On to `CC1(C)CCn2nc(-c3ccc(F)cc3)c(-c3ccnc4[nH]ncc34)c21` [Example 245, 4-[2-(4-Fluorophenyl)-4,4-dimethyl-5,6-dihydropyrrolo[1,2-b]pyrazol-3-yl]-1H-pyrazolo[3,4-b]pyridine], for which the half-inhibitory concentration (IC50) in experiment [1] came to 0.043 µM; in experiment [2] it was 0.005 µM.

For the compound `Cc1cc(-c2c(-c3ccc(F)cc3)nn3c2C(C)(C)CC3)c2cn[nH]c2n1` [Example 246, 4-[2-(4-Fluorophenyl)-4,4-dimethyl-5,6-dihydropyrrolo[1,2-b]pyrazol-3-yl]-6-methyl-1H-pyrazolo[3,4-b]pyridine], the IC50 in experiment [1] is 0.058 µM; in experiment [2], 0.005 µM.

As to `Fc1ccc(-c2nn3c(c2-c2ccnc4[nH]ncc24)CC2(CC2)C3)cc1` [Example 247, 2-(4-Fluorophenyl)-3-(1H-pyrazolo[3,4-b]pyridin-4-yl)spiro[4,6-dihydropyrrolo[1,2-b]pyrazole-5,1′-cyclopropane]], the figures for the IC50 in experiment [1] and in experiment [2] were 0.013 µM and 0.002 µM, respectively.

Turning to `Cc1cc(-c2c(-c3ccc(F)cc3)nn3c2CC2(CC2)C3)c2cn[nH]c2n1` [Example 248, 2-(4-Fluorophenyl)-3-(6-methyl-1H-pyrazolo[3,4-b]pyridin-4-yl)spiro[4,6-dihydropyrrolo[1,2-b]pyrazole-5,1′-cyclopropane]], the IC50 was 0.006 µM in experiment [1] and 0.002 µM in experiment [2].

For `Fc1ccc(-c2nn3c(c2-c2ccnc4[nH]ncc24)CCC32CC2)nc1` [Example 249, 2-(5-Fluoro-2-pyridyl)-3-(1H-pyrazolo[3,4-b]pyridin-4-yl)spiro[4,5-dihydropyrrolo[1,2-b]pyrazole-6,1′-cyclopropane]], the concentration for half-maximal inhibition (IC50) in experiment [1] worked out at 0.197 µM; in experiment [2] it was 0.017 µM.

In the case of `Fc1ccc(-c2nn3c(c2-c2ccnc4[nH]ncc24)C[C@H]2C[C@H]23)cc1` [Example 267, (4aR,5aR)-2-(4-Fluorophenyl)-3-(1H-pyrazolo[3,4-b]pyridin-4-yl)-4,4a,5,5a-tetrahydrocyclopropa[4,5]pyrrolo[1,2-b]pyrazole], the IC50 in experiment [1] was 0.131 µM; in experiment [2], 0.006 µM.

`Fc1ccc(-c2nn3c(c2-c2ccnc4[nH]ncc24)C[C@@H]2C[C@@H]23)cc1` [Example 268, (4aS,5aS)-2-(4-Fluorophenyl)-3-(1H-pyrazolo[3,4-b]pyridin-4-yl)-4,4a,5,5a-tetrahydrocyclopropa[4,5]pyrrolo[1,2-b]pyrazole]: the IC50 was 0.005 µM in experiment [1] and 0.001 µM in experiment [2].

In the case of `Cc1cc(-c2c(-c3ccc(F)cc3)nn3c2C[C@H]2C[C@H]23)c2cn[nH]c2n1` [Example 269], the 50% inhibitory concentration (IC50) in experiment [1] was determined as 0.073 µM; in experiment [2], 0.006 µM.

Turning to `Cc1cc(-c2c(-c3ccc(F)cc3)nn3c2C[C@@H]2C[C@@H]23)c2cn[nH]c2n1` [Example 270], the IC50 in experiment [1] was 0.008 µM; in experiment [2], 0.001 µM.

Take `Fc1ccc(-c2nn3c(c2-c2ccnc4[nH]nc(Cl)c24)C[C@@H]2C[C@@H]23)nc1` [Example 271, (4aS,5aS)-3-(3-Chloro-1H-pyrazolo[3,4-b]pyridin-4-yl)-2-(5-fluoropyridin-2-yl)-4,4a,5,5a-tetrahydrocyclopropa[4,5]pyrrolo[1,2-b]pyrazole]: the IC50 in experiment [1] was determined as 0.004 µM; in experiment [2], 0.002 µM.

As for `Fc1ccc(-c2nn3c(c2-c2c(F)cnc4[nH]ncc24)C[C@@H]2C[C@@H]23)nc1` [Example 272, (4aS,5aS)-3-(5-Fluoro-1H-pyrazolo[3,4-b]pyridin-4-yl)-2-(5-fluoropyridin-2-yl)-4,4a,5,5a-tetrahydrocyclopropa[4,5]pyrrolo[1,2-b]pyrazole], the 50% inhibitory concentration (IC50) in experiment [1] turned out to be 0.071 µM; in experiment [2], 0.002 µM.

For `Cc1nc2[nH]ncc2c(-c2c(-c3ccc(F)cn3)nn3c2C[C@@H]2C[C@@H]23)c1F` [Example 273, (4aS,5aS)-3-(5-Fluoro-6-methyl-1H-pyrazolo[3,4-b]pyridin-4-yl)-2-(5-fluoropyridin-2-yl)-4,4a,5,5a-tetrahydrocyclopropa[4,5]pyrrolo[1,2-b]pyrazole], the half-inhibitory concentration (IC50) in experiment [1] was 0.029 µM; in experiment [2], 0.002 µM.

Regarding `Cc1nc2[nH]nc(C)c2c(-c2c(-c3ccc(F)cn3)nn3c2C[C@@H]2C[C@@H]23)c1F` [Example 274, (4aS,5aS)-3-(5-Fluoro-3,6-dimethyl-1H-pyrazolo[3,4-b]pyridin-4-yl)-2-(5-fluoropyridin-2-yl)-4,4a,5,5a-tetrahydrocyclopropa[4,5]pyrrolo[1,2-b]pyrazole], the half-inhibitory concentration (IC50) in experiment [1] stood at 0.056 µM; in experiment [2] it was 0.005 µM.

Turning to `Fc1ccc(-c2nn3c(c2-c2c(F)cnc4[nH]ncc24)CC(F)(F)CC3)cc1` [Example 278, 4-[5,5-Difluoro-2-(4-fluorophenyl)-6,7-dihydro-4H-pyrazolo[1,5-a]pyridin-3-yl]-5-fluoro-1H-pyrazolo[3,4-b]pyridine], the IC50 in experiment [1] came to 0.064 µM; in experiment [2] it was 0.007 µM.

Consider `Cc1nc(-c2c(-c3ccc(F)cc3)nn3c2CCC(F)(F)C3)c2cn[nH]c2n1` [Example 279, 4-[6,6-Difluoro-2-(4-fluorophenyl)-5,7-dihydro-4H-pyrazolo[1,5-a]pyridin-3-yl]-6-methyl-1H-pyrazolo[3,4-d]pyrimidine], for which the IC50 in experiment [1] came to 0.074 µM; in experiment [2] it was 0.005 µM.

In the case of `Fc1ccc(-c2nn3c(c2-c2c(F)cnc4[nH]ncc24)CCC(F)(F)C3)cc1` [Example 280, 4-(6,6-difluoro-2-(4-fluorophenyl)-4,5,6,7-tetrahydropyrazolo[1,5-a]pyridin-3-yl)-5-fluoro-1H-pyrazolo[3,4-b]pyridine], the values for the half-maximal inhibitory concentration (IC50) in experiment [1] and in experiment [2] were 0.019 µM and 0.004 µM, respectively.

Regarding `CC1(C)CCc2c(-c3ccnc(N)c3)c(-c3ccc(F)cn3)nn2C1` [Example 281, 4-[2-(5-Fluoro-2-pyridyl)-6,6-dimethyl-5,7-dihydro-4H-pyrazolo[1,5-a]pyridin-3-yl]pyridin-2-amine], the IC50 was 0.054 µM in experiment [1] and 0.004 µM in experiment [2].

For `CC1(C)CCc2c(-c3c(F)cnc4[nH]ncc34)c(-c3ccc(F)cn3)nn2C1` [Example 282, 5-Fluoro-4-[2-(5-fluoro-2-pyridyl)-6,6-dimethyl-5,7-dihydro-4H-pyrazolo[1,5-a]pyridin-3-yl]-1H-pyrazolo[3,4-b]pyridine], the concentration for half-maximal inhibition (IC50) worked out at 0.048 µM in experiment [1] and 0.009 µM in experiment [2].

For the compound `[2H]C([2H])([2H])C1(C([2H])([2H])[2H])CCc2c(-c3ccnc4[nH]ncc34)c(-c3ccc(F)cn3)nn2C1` [Example 283, 4-(2-(5-fluoropyridin-2-yl)-6,6-bis(methyl-d3)-4,5,6,7-tetrahydropyrazolo[1,5-a]pyridin-3-yl)-1H-pyrazolo[3,4-b]pyridine], the 50% inhibitory concentration (IC50) in experiment [1] amounted to 0.007 µM; in experiment [2] it was 0.002 µM.

Regarding `[2H]C([2H])([2H])C1(C([2H])([2H])[2H])CC(O)c2c(-c3ccnc4[nH]ncc34)c(-c3ccc(F)cn3)nn2C1` (centres unmarked) [Example 366, 2-(5-Fluoropyridin-2-yl)-6,6-bis(methyl-d3)-3-(1H-pyrazolo[3,4-b]pyridin-4-yl)-4,5,6,7-tetrahydropyrazolo[1,5-a]pyridin-4-ol], the IC50 in experiment [1] worked out at 0.176 µM; in experiment [2], 0.014 µM.

With `CC1(C)Cn2nc(-c3ccc(F)cn3)c(-c3ccn4nccc4c3)c2O1` [Example 367, 6-(5-Fluoro-2-pyridyl)-2,2-dimethyl-7-pyrazolo[1,5-a]pyridin-5-yl-3H-pyrazolo[5,1-b]oxazole], the IC50 in experiment [1] was 0.566 µM; in experiment [2] it was 0.041 µM.

`Cc1cc(-c2c(-c3ccc(F)cn3)nn3c2OC(C)(C)C3)c2cn[nH]c2n1` [Example 368, 6-(5-Fluoro-2-pyridyl)-2,2-dimethyl-7-(6-methyl-1H-pyrazolo[3,4-b]pyridin-4-yl)-3H-pyrazolo[5,1-b]oxazole]: the results for the half-maximal inhibitory concentration (IC50) in experiment [1] and in experiment [2] were 0.055 µM and 0.007 µM, respectively.

On to `Fc1ccc(-c2nn3c(c2-c2ccncc2)COCC3)cc1` [Example 369, 2-(4-Fluorophenyl)-3-(4-pyridyl)-6,7-dihydro-4H-pyrazolo[5,1-c][1,4]oxazine], for which the IC50 in experiment [1] is 0.096 µM; in experiment [2], 0.012 µM.

Turning to `CCn1ncc2cc(-c3c(-c4ccc(F)cc4)nn4c3COCC4C)cnc21` (centres unmarked) [Example 370, 3-(1-Ethyl-1H-pyrazolo[3,4-b]pyridin-5-yl)-2-(4-fluorophenyl)-7-methyl-6,7-dihydro-4H-pyrazolo[5,1-c][1,4]oxazine], the IC50 in experiment [1] was over 10 µM; in experiment [2], 0.524 µM.

In the case of `CCn1ncc2cc(-c3c(-c4ccc(F)cn4)nn4c3CO[C@@H](C)C4)cnc21` [Example 371, (S)-3-(1-Ethyl-1H-pyrazolo[3,4-b]pyridin-5-yl)-2-(5-fluoropyridin-2-yl)-6-methyl-6,7-dihydro-4H-pyrazolo[5,1-c][1,4]oxazine], the 50% inhibitory concentration (IC50) in experiment [1] was 7.8 µM; in experiment [2], 0.404 µM.

Take `Cc1cnc(N)cc1-c1c(-c2ccc(F)cn2)nn2c1COC(C)(C)C2` [Example 378, 4-(2-(5-Fluoropyridin-2-yl)-6,6-dimethyl-6,7-dihydro-4H-pyrazolo[5,1-c][1,4]oxazin-3-yl)-5-methylpyridin-2-amine]: the half-inhibitory concentration (IC50) in experiment [1] came out at 2.3 µM; in experiment [2], 0.119 µM.

For the compound `CCC(=O)Nc1cc(-c2c(-c3ccc(F)cn3)nn3c2COC(C)(C)C3)c(C)cn1` [Example 379, N-(4-(2-(5-Fluoropyridin-2-yl)-6,6-dimethyl-6,7-dihydro-4H-pyrazolo[5,1-c][1,4]oxazin-3-yl)-5-methylpyridin-2-yl)propionamide], the figures for the IC50 in experiment [1] and in experiment [2] were 0.738 µM and 0.041 µM, respectively.

The values above are taken from US20230339970A1, “CASEIN KINASE 1 DELTA MODULATORS” (priority 2020, published 2023).
